According to PMC4497506 (Journal of medicinal chemistry, 2015):
*1 amine or outer side, *2 acyl side, *3 side chain or, on linkers, in order; H or OH if unused. Where a SMILES comes first, the peptide text is derived from it. [ ]: non-standard residue; d: D form. X1 = O=C([C@@H]1C[C@H](n2cc([C]34[CH]5[CH]6[CH]7[CH]3[Fe]6754389%10[CH]4[CH]3[CH]8[CH]9[CH]4%10)nn2)CN1[*:1])[*:2]; X2 = O=C([C@@H]1C[C@H](n2nncc2[C]23[CH]4[CH]5[CH]6[CH]2[Fe]56432789[CH]3[CH]2[CH]7[CH]8[CH]39)CN1[*:1])[*:2]; Bta = N[C@@H](Cc1csc2ccccc12)C(=O)O

Assays:
[1] = target: gp120YU-2 S375H (Human immunodeficiency virus type 1 group M subtype B, UniProt P35961, S370H); test: Competition SPR: inhibition of gp120 S375H binding to sCD4; design: species or system HIV-1
[2] = target: wt gp120YU-2 (Human immunodeficiency virus type 1 group M subtype B, UniProt P35961); test: Competition SPR: inhibition of wt gp120YU-2 binding to immobilized sCD4; design: species or system HIV-1; conditions: relative to peptide 1

CC[C@H](C)[C@H](N)C(=O)N[C@@H](CC(N)=O)C(=O)N[C@@H](CC(N)=O)C(=O)N[C@H](C(=O)N1C[C@@H](n2cc([C]34[CH]5[CH]6[CH]7[CH]3[Fe]6754389%10[CH]4[CH]3[CH]8[CH]9[CH]4%10)nn2)C[C@H]1C(=O)N[C@@H](Cc1csc2ccccc12)C(N)=O)[C@@H](C)CC (some centres unmarked) [peptide 3] (H-INNI[X1][Bta]-NH2)
inhibition of S375H mutant binding to sCD4 [1]: resistant

CC[C@H](C)[C@H](N)C(=O)N[C@@H](CC(N)=O)C(=O)N[C@@H](CC(N)=O)C(=O)N[C@H](C(=O)N1C[C@@H](n2nncc2[C]23[CH]4[CH]5[CH]6[CH]2[Fe]56432789[CH]3[CH]2[CH]7[CH]8[CH]39)C[C@H]1C(=O)N[C@@H](Cc1c[nH]c2ccccc12)C(N)=O)[C@@H](C)CC (some centres unmarked) [peptide 6] (H-INNI[X2]W-NH2)
weaker binding than peptide 1 [2]: ~200 fold
